Test results taken from article PMC5037861 (BMC Research Notes, 2016).
Values belong to the compound of their own block, whether it stands above or below them.

Tests used:
rabbit B2R-GFP = test system: T1, rabbit B2R-GFP; experiment: Confocal microscopy of HEK 293 cells stably expressing B2R-GFP; format: cell-based; conditions: for infrared labeling of cells: followed by rinsing
T1 construct: expressed in transfected cells; host or cells: HEK 293

rat B2R = test system: T2, rat B2R; experiment: IVIS infrared fluorescence imaging of cell wells, HEK 293a cells expressing rat myc-B2R; format: cell-based; conditions: 1–10 nM, 30 min, 37 °C
T2 construct: expressed in transfected cells; host or cells: HEK 293a
Source text: (§1) The apparatus was set in fluorescence mode with filters at 675 nm (excitation) and 831 nm (emission), medium binning and 60 s exposure time. This experiment exploited HEK 293a cells grown in 24-well plates that stably expressed either human or rat B2R sequences N-terminally tagged with the myc epitope. Expression of these receptors as a function of pharmacologic treatment was controlled in separate plates of cells that were not fixed or permeabilized using the binding of anti-myc monoclonal antibody (clone 4A6, Millipore, dilution 1:1000) added along goat horseradish peroxidase-conjugated anti-mouse IgG antibodies (Santa Cruz, dilution 1:1000). […] The resulting blue precipitate was photographed at the macroscopic scale.

[1] = test system: T3, β2-adrenoceptor-GFP Topaz fusion protein; experiment: Confocal microscopy of HEK 293 cells transiently expressing β2-adrenoceptor-GFP Topaz (specificity control); format: cell-based; conditions: for labeling of cells expressing β2-adrenoceptor-GFP Topaz: B-10665 10 nM, B-10666 100 nM, 30 min; for β2-adrenoceptor-GFP endocytosis: isoproterenol 100 nM 30 min, propranolol 1 μM pretreatment
T3 construct: expressed in transfected cells; host or cells: HEK 293 (transient, polyethylenimine); vector a gift from Prof; Michel Bouvier

human B2R [2] = molecular target: T4, human B2R (Homo sapiens, UniProt P30411); experiment: IVIS infrared fluorescence imaging of cell wells, HEK 293a cells expressing human myc-B2R; format: cell-based; conditions: 1–10 nM, 30 min, 37 °C
T4 construct: expressed in transfected cells; host or cells: HEK 293a
T4 sequence (P30411 1-391): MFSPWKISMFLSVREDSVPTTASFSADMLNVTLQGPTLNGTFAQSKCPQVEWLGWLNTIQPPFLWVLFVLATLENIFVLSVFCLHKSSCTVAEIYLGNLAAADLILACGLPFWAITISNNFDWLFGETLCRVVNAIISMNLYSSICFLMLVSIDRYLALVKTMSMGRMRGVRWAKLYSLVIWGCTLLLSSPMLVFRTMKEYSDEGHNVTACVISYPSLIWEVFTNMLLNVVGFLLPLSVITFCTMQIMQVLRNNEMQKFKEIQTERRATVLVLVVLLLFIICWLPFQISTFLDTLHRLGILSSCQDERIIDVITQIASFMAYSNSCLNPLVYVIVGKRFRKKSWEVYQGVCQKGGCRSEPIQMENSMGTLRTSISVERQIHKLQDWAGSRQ
Source text: as §1

human myc-tagged B2Rs = test system: T5, human myc-tagged B2Rs; experiment: Cytofluorometry of detached HEK 293a cells stably expressing human myc-tagged B2Rs; format: cell-based
T5 construct: expressed in transfected cells; host or cells: HEK 293a
Procedure: A subclone of HEK 293 cells, called HEK 293a, originally obtained from Sigma-Aldrich was used in these experiments, either as a non-transfected cell type or as one stably expressing myc-tagged human B2Rs. These cells were grown in Dulbecco’s modified Eagle’s medium supplemented with 10 % fetal bovine serum, 1 % L-glutamine, and 1 % penicillin–streptomycin stock solutions (100×). Cells were detached using the protease-free Cell Dissociation Buffer (Invitrogen), incubated in D-MEM without serum at 37 °C for 30 min under agitation in the presence of a Cy7-conjugated ligands and other drugs, rapidly centrifuged (30 s, 11,000g) and resuspended in phosphate buffered saline. Then, the fluorescence of the cell suspensions was assessed using the BD SORP LSR II cell analyzer for the uptake of the as a function of stimulation and transgene expression. The cytofluorometry results were analyzed using the BD FACS DIVA software.

endogenous B2R [3] = molecular target: T6, endogenous B2R (Homo sapiens, UniProt P30411); experiment: IVIS infrared fluorescence imaging of slices of human umbilical cord; parameters: The human umbilical vein is a contractile bioassay for the endogenous B2R; from tissue; host or cells: human isolated umbilical vein (A2); slices of human umbilical cord (A8); conditions: up to 250 nM, data not shown
T6 sequence (P30411 1-391): T4 sequence (P30411 1-391)

human B2R [4] = molecular target: T4, human B2R; experiment: Competition of [3H]BK (3 nM) binding to HEK 293a cells stably expressing myc-tagged human B2R; conditions: from binding competition IC50 values
Source text: Values are the means ± SEM. of the number of duplicate determinations indicated by n. Average specific binding without competitor (100 %) averaged 133.8 fmol/well.

endogenous B2R [5] = molecular target: T6, endogenous B2R; parameters: The human umbilical vein is a contractile bioassay for the endogenous B2R; from tissue; host or cells: human isolated umbilical vein (A2); conditions: cited from earlier work; for pA2: antagonism of BK-induced contraction
endogenous B2R [6] = molecular target: T6, endogenous B2R; experiment: Human isolated umbilical vein contractility assay; parameters: The human umbilical vein is a contractile bioassay for the endogenous B2R; from tissue; host or cells: human isolated umbilical vein (A2); slices of human umbilical cord (A8); conditions: agonist contraction; based on an extrapolated concentration-effect curve
Procedure: Local ethics review boards approved the anonymous use of segments of human umbilical cords obtained following elective cesarean sections; informed consent was obtained from the mothers. Novel Cy-7 conjugated B2R ligands were assayed via the contraction of the human isolated umbilical vein [9, 10]. Cumulative concentration effect curves were constructed for the agonist version and its potency compared to that of BK. […] Results are presented as mean ± SEM. Radioligand binding data were fitted by nonlinear regression to a one-site competition equation using a least-square method (Prism 5.0, GraphPad Software Inc., San Diego, CA, USA) and IC50 values with their 95 % confidence limits were calculated from this procedure. The same computer program was used to draw concentration-effect curves (least square fitting of sigmoidal dose–response equation with variable slope) and to derive contractile EC50 values.

detection of endogenous B2R (endogenous B2R [3]): could not detect endogenous B2R presence
loss of affinity vs. parent peptide (human B2R [4]): about equipotent to its parent peptide
Compound: CN1C(=CC=C2C=C(C=CC3=[N+](CCCCCC(=O)N[C@H](CCCNC(=N)N)C(=O)N[C@@H](CCCNC(=N)N)C(=O)N4CCC[C@H]4C(=O)N4C[C@H](O)C[C@H]4C(=O)NCC(=O)N[C@H](C(=O)N[C@@H](CO)C(=O)N[C@@H](C(=O)N4[C@H](C(=O)N[C@@H](CCCNC(=N)N)C(=O)O)C[C@@H]5CCCC[C@@H]54)C4Cc5ccccc5C4)C4Cc5ccccc5C4)c4ccccc4C3(C)C)CCC2)C(C)(C)c2ccccc21 [Peptide B-10665, Cy7-B-9430]
infrared labeling of cells (rabbit B2R-GFP; 30 min, 37 °C): labelled essentially plasma membranes in the infrared if and only if B2R-GFP was expressed
infrared staining of cell wells (rat B2R): more so for the rat construction
labeling of cells expressing β2-adrenoceptor-GFP Topaz [1]: Lack of labeling
infrared staining of cell wells (human B2R [2]): stained the cell wells (from a 24-well plate) in a concentration-dependent manner
binding detected by infrared fluorescence (cell labeling) (human myc-tagged B2Rs; 30 min, 37 °C, detached intact cells): specific binding that plateaued in the low nanomolar range

Compound: FTC-B-9430
pA2 (endogenous B2R [5]): 6.96

Compound: N=C(N)NCCC[C@@H](N)C(=O)N[C@@H](CCCNC(=N)N)C(=O)N1CCC[C@H]1C(=O)N1C[C@H](O)C[C@H]1C(=O)NCC(=O)N[C@H](C(=O)N[C@@H](CO)C(=O)N[C@@H](C(=O)N1[C@H](C(=O)N[C@@H](CCCNC(=N)N)C(=O)O)C[C@@H]2CCCC[C@@H]21)C1Cc2ccccc2C1)C1Cc2ccccc2C1 [Peptide B-9430, D-Arg-[Hyp^3,Igl^5,D-Igl^7,Oic^8]-BK]
pA2 (endogenous B2R [5]): 7.7

loss of affinity vs. parent peptide (human B2R [4]): ~ twofold
Compound: N=C(N)NCCC[C@@H](N)C(=O)N[C@@H](CCCNC(=N)N)C(=O)N1CCC[C@H]1C(=O)N1C[C@H](O)C[C@H]1C(=O)NCC(=O)N[C@H](C(=O)N[C@@H](CO)C(=O)N1[C@H](C(=O)N[C@H](C(=O)N[C@@H](CCCNC(=N)N)C(=O)O)C2Cc3ccccc3C2)C[C@@H]2CCCC[C@@H]21)C1Cc2ccccc2C1 [Peptide B-9972, D-Arg-[Hyp^3,Igl^5,Oic^7,Igl^8]-BK, reference compound]

Compound: icatibant [reference compound]
prevention of B-10665 (10 nM) plasma membrane fluorescence (rabbit B2R-GFP; pretreatment of B2R-GFP-expressing cells): prevented
competition of B-10665 binding (human myc-tagged B2Rs; icatibant applied 15 min before B-10665): extensive competition

Compound: CC(C)NCC(O)c1ccc(O)c(O)c1 (centres unmarked) [isoproterenol, reference compound]
β2-adrenoceptor-GFP endocytosis [1]: the receptors are then translocated into endosomes

loss of potency vs. BK (endogenous B2R [6]): 4240 fold
loss of affinity vs. parent peptide (human B2R [4]): ~ 35 fold
Compound: CN1C(=CC=C2C=C(C=CC3=[N+](CCCCCC(=O)N[C@H](CCCNC(=N)N)C(=O)N[C@@H](CCCNC(=N)N)C(=O)N4CCC[C@H]4C(=O)N4C[C@H](O)C[C@H]4C(=O)NCC(=O)N[C@H](C(=O)N[C@@H](CO)C(=O)N4[C@H](C(=O)N[C@H](C(=O)N[C@@H](CCCNC(=N)N)C(=O)O)C5Cc6ccccc6C5)C[C@@H]5CCCC[C@@H]54)C4Cc5ccccc5C4)c4ccccc4C3(C)C)CCC2)C(C)(C)c2ccccc21 [Peptide B-10666, Cy7-B-9972]
infrared labeling of cells (rabbit B2R-GFP; 30 min, 37 °C): did not label untransfected cells or icatibant-pretreated receptor-expressing cells
endocytosis of B2R-GFP (rabbit B2R-GFP; 30 min, 37 °C, live cells): determined the endocytosis of a fraction of the plasma membrane receptors
labeling of cells expressing β2-adrenoceptor-GFP Topaz [1]: Lack of labeling

Compound: CC(C)NCC(O)COc1cccc2ccccc12 (centres unmarked) [propranolol, reference compound]
β2-adrenoceptor-GFP endocytosis [1]: agonist-induced endocytosis was prevented

Compound: fluorescein-5-thiocarbamoyl (FTC)-B-9972 [FTC-B-9972]
EC50 (endogenous B2R [5]; contraction): 0.108 µM
